These results are taken from US9732077B2, “Diazepane orexin receptor antagonists” (MERCK SHARP & DOHME CORP., priority 2013, dated 2017).

In one assay the target is T1, rat orexin-1 receptor (Rattus norvegicus, UniProt P56718).
T1 construct: expressed in transfected cells; host or cells: CHO cells (G418 selection)
T1 sequence (P56718 1-416): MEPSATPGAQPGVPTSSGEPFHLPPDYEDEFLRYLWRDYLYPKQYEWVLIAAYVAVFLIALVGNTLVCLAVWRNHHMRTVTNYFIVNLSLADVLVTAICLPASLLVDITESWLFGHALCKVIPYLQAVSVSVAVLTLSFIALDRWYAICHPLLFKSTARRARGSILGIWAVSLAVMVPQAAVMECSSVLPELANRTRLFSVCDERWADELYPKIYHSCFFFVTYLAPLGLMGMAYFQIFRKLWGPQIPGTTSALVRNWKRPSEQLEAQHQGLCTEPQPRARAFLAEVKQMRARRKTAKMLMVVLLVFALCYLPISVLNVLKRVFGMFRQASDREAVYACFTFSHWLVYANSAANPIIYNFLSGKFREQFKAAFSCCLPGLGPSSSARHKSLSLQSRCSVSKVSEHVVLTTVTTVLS
As to the kind of experiment: OX1R FLIPR Ca flux assay (CHO cells). The format is cell-based. The settings on record: CHO cells expressing rat orexin-1 receptor; agonist 70 pM Ala-6,12 orexin-A. As for the experimental part: (§1) The utility of the compounds in accordance with the present invention as orexin receptor OX1R and/or OX2R antagonists may be readily determined without undue experimentation by methodology well known in the art, including the “FLIPR Ca^+ Flux Assay” (Okumura et al., Biochem. Biophys. Res. Comm. 280:976-981, 2001). In a typical experiment the OX1 and OX2 receptor antagonistic activity of the compounds of the present invention was determined in accordance with the following experimental method. For intracellular calcium measurements, Chinese hamster ovary (CHO) cells expressing the rat orexin-1 receptor or the human orexin-2 receptor, are grown in Iscove's modified DMEM containing 2 mM L-glutamine, […], 1% hypoxanthine-thymidine supplement, 100 U/ml penicillin, 100 μg/ml streptomycin and 10% heat-inactivated fetal calf serum (FCS). The cells are seeded at 20,000 cells/well into Becton-Dickinson black 384-well clear bottom sterile plates coated with poly-D-lysine. All reagents were from GIBCO-Invitrogen Corp. The seeded plates are incubated overnight at 37° C. and 5% CO2. Ala-6,12 human orexin-A as the agonist is prepared as a 1 mM stock solution in 1% bovine serum albumin (BSA) and diluted in assay buffer (HBSS containing 20 mM HEPES, 0.1% BSA and 2.5 mM probenecid, pH7.4) for use in the assay at a final concentration of 70 pM. Test compounds are prepared as 10 mM stock solution in DMSO, then diluted in 384-well plates, first in DMSO, then assay buffer. On the day of the assay, cells are washed 3 times with 100 μl assay buffer and then incubated for 60 min (37° C., 5% CO2) in 60 μl assay buffer containing 1 μM Fluo-4AM ester, 0.02% pluronic acid, and 1% BSA. The dye loading solution is then aspirated and cells are washed 3 times with 100 μl assay buffer. 30 μl of that same buffer is left in each well. Within the Fluorescent Imaging Plate Reader (FLIPR, Molecular Devices), test compounds are added to the plate in a volume of 25 μl, incubated for 5 min and finally 25 μl of agonist is added. Fluorescence is measured for each well at 1 second intervals for 5 minutes and the height of each fluorescence peak is compared to the height of the fluorescence peak induced by 70 pM Ala-6,12 orexin-A with buffer in place of antagonist. For each antagonist, IC50 value (the concentration of compound needed to inhibit 50% of the agonist response) is determined. Alternatively, compound potency can be assessed by a radioligand binding assay (described in Bergman et. al. Bioorg. Med. Chem. Lett. 2008, 18, 1425-1430) in which the inhibition constant (Ki) is determined in membranes prepared from CHO cells expressing either the OX1 or OX2 receptor. The intrinsic orexin receptor antagonist activity of a compound which may be used in the present invention may be determined by these assays.

The target of a further assay is T2, human orexin-2 receptor (Homo sapiens, UniProt O43614).
T2 construct: expressed in transfected cells; host or cells: CHO cells (G418 selection)
T2 sequence (O43614 1-444): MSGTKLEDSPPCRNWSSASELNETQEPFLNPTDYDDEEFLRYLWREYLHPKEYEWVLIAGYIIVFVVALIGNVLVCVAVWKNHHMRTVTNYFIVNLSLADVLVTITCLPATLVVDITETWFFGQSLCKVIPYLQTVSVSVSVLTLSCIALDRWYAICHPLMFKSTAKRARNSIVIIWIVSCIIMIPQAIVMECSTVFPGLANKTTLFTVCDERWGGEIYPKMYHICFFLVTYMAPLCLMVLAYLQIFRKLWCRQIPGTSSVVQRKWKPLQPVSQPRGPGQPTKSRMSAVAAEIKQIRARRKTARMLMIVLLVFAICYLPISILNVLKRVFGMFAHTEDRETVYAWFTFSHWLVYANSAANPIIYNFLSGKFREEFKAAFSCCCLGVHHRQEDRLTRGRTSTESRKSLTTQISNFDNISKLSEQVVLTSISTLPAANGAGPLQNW
As to the kind of experiment: OX2R FLIPR Ca flux assay (CHO cells). The format is cell-based. The settings on record: for IC50: CHO cells expressing human orexin-2 receptor, agonist 70 pM Ala-6,12 orexin-A; for Fold Selectivity OX2R vs. OX1R: ratio of OX1R FLIPR to OX2R FLIPR. As for the experimental part: as §1

Take `Cc1oc(N2CCCN(C(=O)c3ccccc3-n3cccn3)CC2)nc1C(C)(C)O` [Example 20, 2-[5-methyl-2-(4-{[2-(1H-pyrazol-1-yl)phenyl]carbonyl}-1,4-diazepan-1-yl)-1,3-oxazol-4-yl]propan-2-ol]: the IC50 on rat orexin-1 receptor is 6290 nM; on human orexin-2 receptor, 35 nM. The “Fold Selectivity OX2R vs. OX1R” value on human orexin-2 receptor worked out at 179 fold.

As to `Cc1cc(C)nc(N2CCCN(C(=O)c3cccnc3OC(C)C)CC2)n1` [Example 4, 1-(4,6-dimethylpyrimidin-2-yl)-4-{[2-(1-methylethoxy)pyridin-3-yl]carbonyl}-1,4-diazepane], on rat orexin-1 receptor, the IC50 was > 10000 nM. On human orexin-2 receptor, the half-inhibitory concentration (IC50) stood at 106 nM and the “Fold Selectivity OX2R vs. OX1R” value is reported as >94 fold.

Consider `Cc1cc(C)nc(N2CCCN(C(=O)c3ccccc3C3CC3)CC2)n1` [Example 9, 1-[(2-cyclopropylphenyl)-carbonyl]-4-(4,6-dimethylpyrimidin-2-yl)-1,4-diazepane], for which the half-maximal inhibitory concentration (IC50) at rat orexin-1 receptor came to 1810 nM; at human orexin-2 receptor, 17 nM. Moreover, on human orexin-2 receptor, the “Fold Selectivity OX2R vs. OX1R” value is on record as 106 fold.

On to `Cc1cc(C)nc(N2CCCN(C(=O)c3cccnc3OCC(F)F)CC2)n1` [Example 6, 1-{[2-(2,2-difluoroethoxy)pyridin-3-yl]carbonyl}-4-(4,6-dimethylpyrimidin-2-yl)-1,4-diazepane], for which the IC50 on rat orexin-1 receptor was > 10000 nM. Further, at human orexin-2 receptor, the half-inhibitory concentration (IC50) is 20 nM and the “Fold Selectivity OX2R vs. OX1R” value was >500 fold.

For the compound `Cc1cc(C)nc(N2CCCN(C(=O)c3ccccc3-n3cccn3)CC2)n1` [Example 8, 1-(4,6-dimethylpyrimidin-2-yl)-4-{[2-(1H-pyrazol-1-yl)phenyl]carbonyl}-1,4-diazepane], the IC50 on rat orexin-1 receptor was > 10000 nM; at human orexin-2 receptor it was 88 nM. For the same compound, the “Fold Selectivity OX2R vs. OX1R” value on human orexin-2 receptor is >113 fold.

In the case of `Cc1cc(C)nc(N2CCCN(C(=O)c3ccccc3-n3nccn3)CC2)n1` [Example 2, (2-(2H-1,2,3-triazol-2-yl)phenyl)(4-(4,6-dimethylpyrimidin-2-yl)-1,4-diazepan-1-yl)methanone], the figures for the half-maximal inhibitory concentration (IC50) on rat orexin-1 receptor and on human orexin-2 receptor were 2700 nM and 28 nM, respectively. Also, on human orexin-2 receptor, the “Fold Selectivity OX2R vs. OX1R” value amounted to 96 fold.

Consider `Cc1oc(N2CCCN(C(=O)c3ccccc3OC(F)(F)F)CC2)nc1C(C)(C)O` [Example 15, 2-[5-methyl-2-(4-{[2-(trifluoromethoxy)phenyl]carbonyl}-1,4-diazepan-1-yl)-1,3-oxazol-4-yl]propan-2-ol], for which the IC50 on rat orexin-1 receptor is 2880 nM. For the same compound, at human orexin-2 receptor, the IC50 was determined as 21 nM and the “Fold Selectivity OX2R vs. OX1R” value is 137 fold.

For the compound `CC(C)(O)c1csc(N2CCCN(C(=O)c3cccnc3OCC(F)(F)F)CC2)n1` [Example 23, (4-(4-(2-hydroxypropan-2-yl)thiazol-2-yl)-1,4-diazepan-1-yl)(2-(2,2,2-trifluoroethoxy)pyridin-3-yl)methanone], the IC50 on rat orexin-1 receptor was > 10000 nM; at human orexin-2 receptor, 57 nM. In addition, on human orexin-2 receptor, the “Fold Selectivity OX2R vs. OX1R” value is >175 fold.

`Cc1cc(C)nc(N2CCCN(C(=O)c3cccnc3-c3ccccc3)CC2)n1` [Example 11, 1-(4,6-dimethylpyrimidin-2-yl)-4-[(2-phenylpyridin-3-yl)carbonyl]-1,4-diazepane]: the IC50 at rat orexin-1 receptor is > 10000 nM. Further, on human orexin-2 receptor, the half-inhibitory concentration (IC50) stood at 166 nM and the “Fold Selectivity OX2R vs. OX1R” value is given as >60 fold.

A word on the IC50: it is the midpoint of a concentration-inhibition curve.
